Results taken from patent US11566007B2, “Ras inhibitors” (Revolution Medicines, Inc., priority 2019, dated 2023).

Tests used:
[1] = tested on: NCI-H358 (K-Ras G12C); assay: CellTiter-Glo cell viability assay, NCI-H358; type: cell-based, human; settings: Homo sapiens, NCI-H358, 120 h, NCI-H358, 5-day treatment; class symbols; read-out: Additional H358 Cell Viability assay data (K-Ras G12C, IC50)
Summary of the method: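 Four-parameter logistic fits were applied to luminescence data normalized against DMSO-treated wells. Readings were taken on day 5 following direct compound addition, after roughly 30 minutes at room temperature.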

[2] = biological target: K-Ras G12C (Homo sapiens (Human), UniProt P01116+P62937, G12C); assay: Ras-Raf (BRAF RBD) disruption / FRET / MOA assay, KRAS G12C; type: biochemical; settings: KRAS G12C; Ras-Raf disruption/FRET/MOA assay; read-out: IC50* KRAS G12C FRET data
Sequence of K-Ras G12C (P01116-2 other isoform, or with tags, fused parts or gaps G12C): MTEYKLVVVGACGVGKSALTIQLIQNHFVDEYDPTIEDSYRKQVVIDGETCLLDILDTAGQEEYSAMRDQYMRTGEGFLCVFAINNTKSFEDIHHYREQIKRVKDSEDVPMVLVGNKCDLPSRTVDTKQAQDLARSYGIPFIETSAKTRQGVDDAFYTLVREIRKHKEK
Sequence of K-Ras G12C (P62937 whole entry): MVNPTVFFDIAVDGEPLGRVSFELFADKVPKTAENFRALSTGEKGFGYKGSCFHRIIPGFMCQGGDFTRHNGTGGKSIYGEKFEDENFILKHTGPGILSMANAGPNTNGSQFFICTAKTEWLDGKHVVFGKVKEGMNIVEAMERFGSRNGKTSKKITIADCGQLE
Summary of the method: (§1)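 Ternary complex formation (Ras–compound–cyclophilin A) displacing BRAF RBD, monitored by TR-FRET. Three hours at 25° C with compound (top 30 μM final), then 1.5 h with the labelled antibodies. Lower ratio than DMSO indicates disruption; IC50 reported.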

[3] = biological target: K-Ras G13C (Homo sapiens (Human), UniProt P01116+P62937, G13C); assay: Ras-Raf (BRAF RBD) disruption / FRET / MOA assay, KRAS G13C; type: biochemical; settings: KRAS G13C; Ras-Raf disruption/FRET/MOA assay; read-out: IC50* KRAS G13C FRET data
Sequence of K-Ras G13C (P01116-2 other isoform, or with tags, fused parts or gaps G13C): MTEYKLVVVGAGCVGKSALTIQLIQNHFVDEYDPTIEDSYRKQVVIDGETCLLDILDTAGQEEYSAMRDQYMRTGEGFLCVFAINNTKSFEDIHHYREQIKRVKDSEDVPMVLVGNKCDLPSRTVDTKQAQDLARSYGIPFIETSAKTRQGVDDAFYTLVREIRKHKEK
Sequence of K-Ras G13C (P62937 whole entry): as the sequence (P62937 whole entry) above
Summary of the method: as §1

[4] = biological target: KRAS G12S (Homo sapiens (Human), UniProt P01116+P62937, G12S); assay: Ras-Raf (BRAF RBD) disruption / FRET / MOA assay, KRAS G12S; type: biochemical; settings: Ras-Raf disruption/FRET/MOA assay; class symbols; read-out: KRAS G12S FRET data IC50
Sequence of KRAS G12S (P01116-2 other isoform, or with tags, fused parts or gaps G12S): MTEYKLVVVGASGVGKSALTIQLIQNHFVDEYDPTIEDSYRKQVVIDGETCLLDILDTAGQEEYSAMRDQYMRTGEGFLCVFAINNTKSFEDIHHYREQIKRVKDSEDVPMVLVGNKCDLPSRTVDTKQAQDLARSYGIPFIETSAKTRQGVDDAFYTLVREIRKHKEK
Sequence of KRAS G12S (P62937 whole entry): as the sequence (P62937 whole entry) above
Summary of the method: as §1

[5] = biological target: KRAS G12D (Homo sapiens (Human), UniProt P01116+P62937, G12D); assay: Ras-Raf (BRAF RBD) disruption / FRET / MOA assay, KRAS G12D; type: biochemical; settings: Ras-Raf disruption/FRET/MOA assay; class symbols; read-out: KRAS G12D FRET data IC50
Sequence of KRAS G12D (P01116-2 other isoform, or with tags, fused parts or gaps G12D): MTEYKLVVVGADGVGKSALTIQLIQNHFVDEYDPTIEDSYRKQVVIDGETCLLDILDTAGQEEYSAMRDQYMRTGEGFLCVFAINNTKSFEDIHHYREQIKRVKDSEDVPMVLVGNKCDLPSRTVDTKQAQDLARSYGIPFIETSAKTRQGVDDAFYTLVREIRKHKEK
Sequence of KRAS G12D (P62937 whole entry): as the sequence (P62937 whole entry) above
Summary of the method: as §1

[6] = biological target: KRAS G12V (Homo sapiens (Human), UniProt P01116+P62937, G12V); assay: Ras-Raf (BRAF RBD) disruption / FRET / MOA assay, KRAS G12V; type: biochemical; settings: read-out: IC50* KRAS G12V FRET data
Sequence of KRAS G12V (P01116-2 other isoform, or with tags, fused parts or gaps G12V): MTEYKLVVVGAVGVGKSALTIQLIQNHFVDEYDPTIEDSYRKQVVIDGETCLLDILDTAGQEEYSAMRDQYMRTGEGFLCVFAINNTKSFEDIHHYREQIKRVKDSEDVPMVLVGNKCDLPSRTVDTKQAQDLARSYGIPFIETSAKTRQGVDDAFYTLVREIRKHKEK
Sequence of KRAS G12V (P62937 whole entry): as the sequence (P62937 whole entry) above
Summary of the method: as §1

[7] = biological target: KRAS WT (Homo sapiens (Human), UniProt P01116+P62937); assay: Ras-Raf (BRAF RBD) disruption / FRET / MOA assay, KRAS WT; type: biochemical; settings: read-out: IC50* KRAS WT FRET data
Sequence of KRAS WT (P01116-2 other isoform, or with tags, fused parts or gaps): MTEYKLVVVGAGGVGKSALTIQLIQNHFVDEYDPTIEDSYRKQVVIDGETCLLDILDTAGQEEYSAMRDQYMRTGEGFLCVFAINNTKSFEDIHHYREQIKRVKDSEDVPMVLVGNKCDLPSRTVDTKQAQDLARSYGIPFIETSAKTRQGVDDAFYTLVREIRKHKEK
Sequence of KRAS WT (P62937 whole entry): as the sequence (P62937 whole entry) above
Summary of the method: as §1

[8] = biological target: KRAS G13D (Homo sapiens (Human), UniProt P01116+P62937, G13D); assay: Ras-Raf (BRAF RBD) disruption / FRET / MOA assay, KRAS G13D; type: biochemical; settings: read-out: IC50* KRAS G13D FRET data
Sequence of KRAS G13D (P01116-2 other isoform, or with tags, fused parts or gaps G13D): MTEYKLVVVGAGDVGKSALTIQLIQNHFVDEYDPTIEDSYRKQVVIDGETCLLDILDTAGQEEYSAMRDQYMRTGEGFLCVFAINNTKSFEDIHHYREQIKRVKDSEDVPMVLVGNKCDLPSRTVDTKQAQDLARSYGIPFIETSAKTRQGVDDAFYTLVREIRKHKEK
Sequence of KRAS G13D (P62937 whole entry): as the sequence (P62937 whole entry) above
Summary of the method: as §1

[9] = biological target: KRAS Q61H (Homo sapiens (Human), UniProt P01116+P62937, Q61H); assay: Ras-Raf (BRAF RBD) disruption / FRET / MOA assay, KRAS Q61H; type: biochemical; settings: Ras-Raf disruption/FRET/MOA assay; class symbols; read-out: KRAS Q61H FRET data IC50
Sequence of KRAS Q61H (P01116-2 other isoform, or with tags, fused parts or gaps Q61H): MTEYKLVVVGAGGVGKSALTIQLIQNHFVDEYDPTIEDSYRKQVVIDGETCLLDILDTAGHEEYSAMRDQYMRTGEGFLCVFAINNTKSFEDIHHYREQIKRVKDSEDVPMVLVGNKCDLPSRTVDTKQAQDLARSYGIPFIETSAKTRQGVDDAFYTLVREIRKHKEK
Sequence of KRAS Q61H (P62937 whole entry): as the sequence (P62937 whole entry) above
Summary of the method: (§2)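 Compounds were tested as a 10-point 3-fold dilution series from 30 μM final for their ability to drive ternary complex formation between nucleotide-loaded Ras and cyclophilin A, displacing the BRAF RBD. After 3 h at 25° C., anti-His Eu-W1024 (10 nM) and anti-GST allophycocyanin (50 nM) were added for 1.5 h. A TR-FRET ratio decrease versus DMSO gave IC50.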

[10] = biological target: NRAS G12C (Homo sapiens (Human), UniProt P01111+P62937, G12C); assay: Ras-Raf (BRAF RBD) disruption / FRET / MOA assay, NRAS G12C; type: biochemical; settings: read-out: IC50* NRAS G12C FRET data
Sequence of NRAS G12C (P01111 whole entry G12C): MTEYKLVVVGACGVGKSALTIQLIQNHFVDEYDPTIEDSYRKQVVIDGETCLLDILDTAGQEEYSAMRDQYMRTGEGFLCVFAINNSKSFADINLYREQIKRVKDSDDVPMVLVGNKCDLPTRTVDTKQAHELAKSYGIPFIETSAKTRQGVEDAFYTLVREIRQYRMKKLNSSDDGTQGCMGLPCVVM
Sequence of NRAS G12C (P62937 whole entry): as the sequence (P62937 whole entry) above
Summary of the method: as §1

[11] = biological target: NRAS Q61R (Homo sapiens (Human), UniProt P01111+P62937, Q61R); assay: Ras-Raf (BRAF RBD) disruption / FRET / MOA assay, NRAS Q61R; type: biochemical; settings: NRAS Q61R; Ras-Raf disruption/FRET/MOA assay; read-out: IC50* NRAS Q61R FRET data
Sequence of NRAS Q61R (P01111 whole entry Q61R): as the sequence (P01111 whole entry G12C) above, with C12G, Q61R counted along it
Sequence of NRAS Q61R (P62937 whole entry): as the sequence (P62937 whole entry) above
Summary of the method: as §2

[12] = biological target: NRAS WT (Homo sapiens (Human), UniProt P01111+P62937); assay: Ras-Raf (BRAF RBD) disruption / FRET / MOA assay, NRAS WT; type: biochemical; settings: read-out: IC50* NRAS WT FRET data
Sequence of NRAS WT (P01111 whole entry): as the sequence (P01111 whole entry G12C) above, with C12G counted along it
Sequence of NRAS WT (P62937 whole entry): as the sequence (P62937 whole entry) above
Summary of the method: as §2

Row | Structure (SMILES) | IC50 [1] [µM] | IC50 [2] [µM] | IC50 [3] [µM] | IC50 [4] [µM] | IC50 [5] [µM] | IC50 [6] [µM] | IC50 [7] [µM] | IC50 [8] [µM] | IC50 [9] [µM] | IC50 [10] [µM] | IC50 [11] [µM] | IC50 [12] [µM]
1 | CCn1c(-c2cccnc2[C@H](C)OC)c2c3cc(ccc31)-c1csc(n1)C[C@H](NC(=O)[C@H](C(C)C)N(C)C(=O)N1C[C@@H]3CN(C(=O)C#CC(C)(C)N(C)C)CC[C@@H]31)C(=O)N1CCC[C@H](N1)C(=O)OCC(C)(C)C2 (atropisomer, axis not shown) [Example A625] | 0.01 to 0.1 | 0.1 to 1 | 0.1 to 1 | 0.1 to 1 | 1 to 10 | 0.1 to 1 | 0.1 to 1 | 1 to 10 | 0.1 to 1 | 0.1 to 1 | 0.1 to 1 | 0.1 to 1
2 | C=CC(=O)N(C)[C@H]1CN(C(=O)N(C)[C@H](C(=O)N[C@H]2Cc3nc(cs3)-c3ccc4c(c3)c(c(-c3cccnc3[C@H](C)OC)n4CC)CC(C)(C)COC(=O)[C@@H]3CCCN(N3)C2=O)C(C)C)C[C@@H]1F (atropisomer, axis not shown) [Example A632] | 0.1 to 1 | 0.01 to 0.1 | 0.01 to 0.1 | 0.1 to 1 | 1 to 10 | 0.1 to 1 | 0.1 to 1 | 1 to 10 | 0.1 to 1 | 0.01 to 0.1 | 0.1 to 1 | 0.1 to 1
3 | C=CC(=O)N(C)[C@@H]1C[C@H](C)N(C(=O)N(C)[C@H](C(=O)N[C@H]2Cc3nc(cs3)-c3ccc4c(c3)c(c(-c3cccnc3[C@H](C)OC)n4CC)CC(C)(C)COC(=O)[C@@H]3CCCN(N3)C2=O)C(C)C)C1 (atropisomer, axis not shown) [Example A633] | 0.01 to 0.1 | 0.1 to 1 | 0.1 to 1 | 0.1 to 1 | 0.1 to 1 | 0.1 to 1 | 0.01 to 0.1 | 0.1 to 1 | 0.01 to 0.1 | 0.01 to 0.1 | 0.01 to 0.1 | 0.01 to 0.1
4 | C=CC(=O)N(C)[C@@H]1C[C@@H](C)N(C(=O)N(C)[C@H](C(=O)N[C@H]2Cc3nc(cs3)-c3ccc4c(c3)c(c(-c3cccnc3[C@H](C)OC)n4CC)CC(C)(C)COC(=O)[C@@H]3CCCN(N3)C2=O)C(C)C)C1 (atropisomer, axis not shown) [Example A634] | 0.01 to 0.1 | 0.01 to 0.1 | 0.1 to 1 | 0.1 to 1 | 1 to 10 | 0.1 to 1 | 0.1 to 1 | 1 to 10 | 0.1 to 1 | 0.01 to 0.1 | 0.1 to 1 | 0.1 to 1
5 | C=CC(=O)N1CCCC2(CCN(C(=O)N(C)[C@H](C(=O)N[C@H]3Cc4nc(cs4)-c4ccc5c(c4)c(c(-c4cccnc4[C@H](C)OC)n5CC)CC(C)(C)COC(=O)[C@@H]4CCCN(N4)C3=O)C(C)C)CC2)C1 (atropisomer, axis not shown) [Example A635] | 0.1 to 1 | 0.1 to 1 | 0.1 to 1 | 0.1 to 1 | 1 to 10 | 0.1 to 1 | 0.1 to 1 | 1 to 10 | 0.1 to 1 | 0.1 to 1 | 0.1 to 1 | 0.1 to 1
6 | C=CC(=O)N1CC2(CCN2C(=O)N(C)[C@H](C(=O)N[C@H]2Cc3cccc(n3)-c3ccc4c(c3)c(c(-c3cccnc3[C@H](C)OC)n4CC)CC(C)(C)COC(=O)[C@@H]3CCCN(N3)C2=O)C(C)C)C1 (atropisomer, axis not shown) [Example A636] | < 0.01 | 0.01 to 0.1 | 0.1 to 1 | 0.1 to 1 | 1 to 10 | 1 to 10 | 0.1 to 1 | 1 to 10 | 0.1 to 1 | 0.01 to 0.1 | 0.1 to 1 | 0.1 to 1
7 | CCn1c(-c2cccnc2[C@H](C)OC)c2c3cc(ccc31)-c1csc(n1)C[C@H](NC(=O)C[C@@H](C)OC1CN(C(=O)C#CC(C)(C)N(C)C)C1)C(=O)N1CCC[C@H](N1)C(=O)OCC(C)(C)C2 (atropisomer, axis not shown) [Example A638] | 0.01 to 0.1 | < 0.01 | 1 to 10 | 1 to 10 | > 10 | 1 to 10 | 1 to 10 | 1 to 10 | 1 to 10 | < 0.01 | 1 to 10 | 1 to 10
8 | C=CC(=O)N1CC[C@H](C(=O)N(C)[C@H](C(=O)N[C@H]2Cc3cccc(c3)-c3ccc4c(c3)c(c(-c3cccnc3[C@H](C)OC)n4CC)CC(C)(C)COC(=O)[C@@H]3CCCN(N3)C2=O)[C@@H](C)C(F)(F)F)C1 (atropisomer, axis not shown) [Example A640] | 0.01 to 0.1 | 0.1 to 1 | 0.1 to 1 | 1 to 10 | 1 to 10 | 1 to 10 | 1 to 10 | 1 to 10 | 0.1 to 1 | 0.1 to 1 | 1 to 10 | 1 to 10
9 | CCn1c(-c2cccnc2[C@H](C)OC)c2c3cc(ccc31)N1CCO[C@@H](C[C@H](NC(=O)[C@H](C(C)C)N(C)C(=O)C3(F)CCN(C(=O)/C=C/CN(C)C)CC3)C(=O)N3CCC[C@H](N3)C(=O)OCC(C)(C)C2)C1 (atropisomer, axis not shown) [Example A645] | 0.01 to 0.1 | 0.01 to 0.1 | 0.1 to 1 | 1 to 10 | 1 to 10 | 1 to 10 | 1 to 10 | 1 to 10 | 1 to 10 | 0.01 to 0.1 | > 10 | 1 to 10
10 | CC#CC(=O)N1CC2(CCN2C(=O)N(C)[C@H](C(=O)N[C@H]2Cc3nc(cs3)-c3ccc4c(c3)c(c(-c3cccnc3[C@H](C)OC)n4CC)CC(C)(C)COC(=O)[C@@H]3CCCN(N3)C2=O)C(C)C)C1 (atropisomer, axis not shown) [Example A655] | 0.01 to 0.1 | 0.1 to 1 | 0.1 to 1 | 0.1 to 1 | 1 to 10 | 0.1 to 1 | 0.1 to 1 | 0.1 to 1 | 0.01 to 0.1 | 0.1 to 1 | 0.01 to 0.1 | 0.1 to 1
11 | C=CC(=O)N1CC[C@]2(CCN2C(=O)N(C)[C@H](C(=O)N[C@H]2Cc3nc(cs3)-c3ccc4c(c3)c(c(-c3cccnc3[C@H](C)OC)n4CC)CC(C)(C)COC(=O)[C@@H]3CCCN(N3)C2=O)C(C)C)C1 (atropisomer, axis not shown) [Example A662] | 0.01 to 0.1 | 0.01 to 0.1 | 0.1 to 1 | 0.1 to 1 | 0.1 to 1 | 0.1 to 1 | 0.1 to 1 | 0.1 to 1 | 0.01 to 0.1 | 0.01 to 0.1 | 0.1 to 1 | 0.1 to 1
12 | CCn1c(-c2cccnc2[C@H](C)OC)c2c3cc(ccc31)-c1csc(n1)C[C@H](NC(=O)[C@H](C(C)C)N(C)C(=O)N1CCCOC13CN(C(=O)C#CC(C)(C)N(C)C)C3)C(=O)N1CCC[C@H](N1)C(=O)OCC(C)(C)C2 (atropisomer, axis not shown) [Example A666] | 0.01 to 0.1 | 1 to 10 | > 10 | > 10 | > 10 | > 10 | > 10 | > 10 | 1 to 10 | 1 to 10 | > 10 | > 10
